From publication PMC9917214, “Assessment of the Permeability of 3,4-Methylenedioxypyrovalerone (MDPV) across the Caco-2 Monolayer for Estimation of Intestinal Absorption and Enantioselectivity” (International Journal of Molecular Sciences, 2023)

Tests used:
Caco-2 cells [1] = conditions: racemates; cited from earlier work
Caco-2 model = test system: Caco-2 model; design: method as in PMID 32234388; conditions: cited from earlier work
[2] = Sample stability in HBSS (+/+) after 6 weeks of storage (UHPLC-UV peak area); format: physicochemical
Experimental: To evaluate stability, three different calibrators within the linear concentration range (10 (low), 100 (medium), and 500 (high) μM) were prepared and injected into the UHPLC. The remaining volume of each calibrator was divided into several vials and further stored at different temperatures (room temperature, 4 °C, −20 °C, and −80 °C) for 6 weeks (the same storage time of the samples obtained from the permeability assay with Caco-2 cells). After the storage period, samples were injected in duplicate and the obtained analyte peak area for each calibrator in each temperature was compared with the peak area obtained on day 0. Percentages of peak variation were calculated for each concentration.

Caco-2 cells [3] = test: Cell viability assay (Neutral Red) in Caco-2 cells; format: cell-based, human; conditions: 24 h, NR assay
Experimental: MDPV cytotoxicity for the Caco-2 cell line was evaluated through the NR assay as previously described. This method provides an indication of the ability of lysosomes from viable cells to incorporate the NR dye. Caco-2 cells were seeded onto 96-well plates using a density of 60,000 cells/cm^2 to obtain confluent monolayers at the experimental day. The cells were incubated with the racemate of MDPV (0, 50, 150, 300, 500, 750, 1000, 1250, and 1500 µM) in fresh cell culture medium for 24 h. After the selected time interval, the cell culture medium was removed and replaced by a 50 µg/mL NR solution in HBSS (+/+) for 90 min, after which the NR solution was discarded, a lysis solution (50% EtOH/1% glacial acetic acid solution) was added, and the absorbance was read at 540 nm in a 96-well plate reader (PowerWaveX; Bio-Tek, Winooski, VT, USA). Additionally, 1% Triton X-100 was used as the positive control. Data were expressed as the percentage of cell viability relative to untreated cells. Data were obtained from four independent experiments performed in triplicate.

Caco-2 monolayer = test: Permeability assay across the Caco-2 monolayer; format: in vitro ADME, human; conditions: mean ± SD; for Mass Balance (%): 300 µM in HBSS (+/+), 300 min
Experimental: For the in vitro permeability assay, Caco-2 cells were seeded on polycarbonate transwell inserts (12-well, 0.4 μm pores, Corning) using a density of 120,000 cells/cm^2 and cultivated for twenty-one days to allow the development of a differentiated monolayer. TEER was measured to control the integrity of the monolayers for twenty-one days.
After twenty-one days, the cells were incubated with 300 µM of each enantiomer of MDPV (in HBSS (+/+)). The assay was performed for both AP to BL and BL to AP directions. For AP to BL, exposure to the enantiomers was performed in the AP compartment (450 µL) while for BL to AP, exposure was made in the BL compartment (1250 µL). Right after the exposure (time 0), 50 µL was collected from each donor compartment (where exposure was performed). At suitable time intervals (40, 60, 90, 120, 180, 240, and 300 min), 600 µL (for AP to BL) and 200 µL (for BL to AL) of samples was collected from the BL and AP compartments (receiver compartments), respectively, and the same amount of HBSS (+/+) was added. In the last time point (300 min), 50 µL was also collected from the donor compartment. Collected samples were stored at −80 °C until the day of the UHPLC analysis. After 6 weeks of storage, samples were filtered with a 13 mm nylon syringe filter with […] pore size from Olimpeak™ and quantification was performed by the validated UHPLC-UV method. Results were obtained for three experiments, performed in duplicate.
Mass balance was calculated using the following equation [31]:(5) % Mass balance=100×QR,T+QD,f/QD,0 where QR,T is the total cumulative quantity in the receiver chamber (nmol), QD,f is the final quantity in the donor chamber (nmol), and QD,0 is the initial quantity in the donor chamber (nmol).
To calculate Papp, first, a determination had to be made to determine whether the results were under sink or non-sink conditions. […] If the ratio is higher, Papp has to be calculated considering a non-sink analysis.
For sink conditions, Papp was calculated in cm/s using the following equation [24]:(6) Papp=ΔQ/Δt×1/A×C0 where ΔQ/Δt is the amount of compound over time (mol/s), A is the surface area of the monolayer (cm^2), and C0 is the initial drug concentration on the donor side (mol/mL).
For non-sink conditions, a continuous change of the donor and receiver concentrations is considered, and the following equation must be used for each time interval to calculate the theoretical concentration at the receiver side:(7) CR(t)=(Qtot/VD+VR)+(CR(t−1)×f−Qtot/VD+VR)×e^−P×A×(1/VR+1/VD)×Δt where CR(t) is the theoretical concentration in the receiver side at time t (µM), Qtot is the total amount of drug in both chambers at time t (nmol), VR and VD are the volumes in the receiver and donor compartments (mL), respectively, CR(t-1) is the concentration in the receiver chamber at the previous time (µM), f is the dilution factor for the sample replacement, A is the surface area of the monolayer (cm^2), Δt is the time interval (s), and P is an initial approximation of the permeability coefficient calculated through Equation (6) (cm/s).
Papp values are determined by the minimization of the Sum of Squared Residuals (SSR):(8) SSR=∑[CR(t)theor−CR(t)exp]^2 where CR(t)theor is the theoretical concentration in the receiver side at time t calculated through Equation (7) and CR(t)exp is the experimental concentration in the receiver side at time t obtained directly from the quantification of the samples. […]

CNC(C)C(=O)c1ccc2c(c1)OCO2 (centres unmarked) [methylone]
Concentration range with no cytotoxic effects (Caco-2 cells [1]): up to 2000 μM

CN[C@@H](C)C(=O)c1ccc2c(c1)OCO2 [S-(-)-methylone]
Enantioselectivity in permeability (more permeable enantiomer) (Caco-2 model): most permeable

CCCC(NC)C(=O)c1ccccc1 (centres unmarked) [pentedrone]
Concentration range with no cytotoxic effects (Caco-2 cells [1]): up to 2000 μM

CCCC(C(=O)c1ccc2c(c1)OCO2)N1CCCC1 (centres unmarked) [MDPV, 3,4-Methylenedioxypyrovalerone]
% peak area variation relative to day 0 ([2]; 10 µM in HBSS (+/+), 6 weeks of storage at 4 °C): 10.9%
% peak area variation relative to day 0 ([2]; 10 µM in HBSS (+/+), 6 weeks of storage at RT): 11.0%
% peak area variation relative to day 0 ([2]; 10 µM in HBSS (+/+), 6 weeks of storage at −20 °C): 12.5%
% peak area variation relative to day 0 ([2]; 10 µM in HBSS (+/+), 6 weeks of storage at −80 °C): 7.1%
% peak area variation relative to day 0 ([2]; 100 µM in HBSS (+/+), 6 weeks of storage at 4 °C): 9.1%
% peak area variation relative to day 0 ([2]; 100 µM in HBSS (+/+), 6 weeks of storage at RT): 11.9%
% peak area variation relative to day 0 ([2]; 100 µM in HBSS (+/+), 6 weeks of storage at −20 °C): 10.4%
% peak area variation relative to day 0 ([2]; 100 µM in HBSS (+/+), 6 weeks of storage at −80 °C): 8.6%
% peak area variation relative to day 0 ([2]; 500 µM in HBSS (+/+), 6 weeks of storage at 4 °C): 3.4%
% peak area variation relative to day 0 ([2]; 500 µM in HBSS (+/+), 6 weeks of storage at RT): 10.2%
% peak area variation relative to day 0 ([2]; 500 µM in HBSS (+/+), 6 weeks of storage at −20 °C): 5.3%
% peak area variation relative to day 0 ([2]; 500 µM in HBSS (+/+), 6 weeks of storage at −80 °C): 6.8%
Concentration from which a significant decrease in cell viability was observed (Caco-2 cells [3]): ≥ 1000 µM
Concentration with no statistically significant differences in cell viability (Caco-2 cells [3]; tested up to 1500 µM): ≤ 750 µM

CCC[C@@H](NC)C(=O)c1ccccc1 [R-(-)-pentedrone]
Enantioselectivity in permeability (more permeable enantiomer) (Caco-2 model): most permeable

CCC[C@@H](C(=O)c1ccc2c(c1)OCO2)N1CCCC1 [S-(-)-MDPV]
Mass Balance (%) (Caco-2 monolayer; AP → BL direction): 100 ± 2%
Papp (Caco-2 monolayer; AP → BL direction, sink conditions (Equation 6), 300 µM): 1.8e-05 ± 1e-06 cm/s
Mass Balance (%) (Caco-2 monolayer; BL → AP direction): 101 ± 4%
Papp (Caco-2 monolayer; BL → AP direction, non-sink conditions (Equation 7), 300 µM): 3.4 × 10^−5 ± 1 × 10^−6 ****^; # cm/s
Efflux Ratio (Caco-2 monolayer; Papp (BL→AP)/Papp (AP→BL), 300 µM): 1.8 ± 0.2
